Experiments:
CFTR−/− mice [1] = assay: Fatty acid levels (GC/MS) in pancreas and lung cells of CFTR−/− mice fed n-3 fatty acids; type: in vivo, mouse; details: CFTR-/- mice, 40 mg/day for one week (fish oil: dose equivalent to 40 mg DHA, 60 mg EPA, 15 mg LNA); mean ± S.D.
Description: Mouse pancreatic acinar and lung cell suspensions were prepared from wild type (n=3) and CFTR−/− mice (n=3) by enzymatic and mechanical dissociation. In addition, brain, kidney, heart, spleen, and blood were sonicated in 0.3M sucrose buffer. Membrane lipids were extracted from cell and organ preparations with 20 volumes of chloroform-methanol 2:1 (v/v), transmethylated with 0.5 mL of 0.1 N methanolic-NaOH/BF3 reagent, and the resulting fatty acid methyl esters analyzed by gas chromatography/mass spectrometry (GC/MS). In a different set of experiments, lipids were fractionated by aminopropyl column chromatography into triglycerides, cholesterol esters, and phosphoglycerides and the fatty acid composition of each lipid class determined by a combination of enzymatic hydrolysis, transmethylation, and GC/MS.
Cystic fibrosis (UNC strain) and wild type mice (12-20 grams body weight) were fed with a complete liquid enteral formulation (Peptamen™, Nestle Clinical Nutrition, Inc.) supplemented with different quantities of the DHA-containing formulation Neuromins (Nature's Way Products Inc., Springville, Utah). DHA content in the Neuromins formulation was 100 mg per 500 mg of formulation. Mice were fed once a day at about 11 a.m., seven days a week with 20 ml of Peptamen™ supplemented with the various amounts of either Neuramins, free DHA (Sigma Chemical Co., MO) or DHA-ethyl ester (Nu-Check-Prep, Inc. MN) ranging from 0.5 mg/day of DHA to 40 mg/day of DHA.
Lung and acinar cells were isolated from a CF mouse fed with DHA formula (mouse-1, 40 mg/day DHA). The pellets (0.5 mL for pancreas cell homogenate and 0.6 mL for lung cell homogenate) were extracted with 3 mL of chloroform-methanol 2:1 (v/v). The resulting emulsion was vortexed, centrifuged at 800 g for 3 min., and the lower phase aspirated. The residual upper phase was partitioned again with 3 mL of chloroform-methanol 2:1 (v/v), the lower phase aspirated and both lower phases combined. Fractions were evaporated to dryness, processed for fatty acid methyl esters (FAME) and were analyzed by GC-MS analysis. Aliquots of 10 μL of 17:0 methyl ester solution in hexane [1 μg/μL] were added to the samples after methylation.
(§1) Lung and acinar cells were isolated from a CF and a wild-type (WT) mouse fed with DHA formula. The pellets (0.5 mL for pancreas cell homogenate and 0.6 mL for lung cell homogenate) were extracted with 3 mL of chloroform-methanol 2:1 (v/v). The resulting emulsion was vortexed, centrifuged at 800 g for 3 min., and the lower phase aspirated. The residual upper phase was partitioned again with 3 mL of chloroform-methanol 2:1 (v/v), the lower phase aspirated and both lower phases combined. Fractions were evaporated to dryness, processed for FAME and analyzed by GC-MS. Aliquots of 20 μL of 17:0 in chloroform-methanol 2:1 (v/v) were added to the samples before methylation.
as §1, with “from” for “from a”, “mice” for “and a wild-type (WT) mouse”, “different doses of DHA, i.e., 0.5 mg/day, 2.0 mg/day, 10 mg/day or 40 mg/day DHA.” for “DHA formula.”, “pellets” for “pellets (0.5 mL for pancreas cell homogenate and 0.6 mL for lung cell homogenate)”, “30” for “20”
CFTR−/− mice were prepared as described in Example 1. Both CFTR−/− mice and wild type mice were euthanized with carbon dioxide, and cell suspensions from pancreas and lung isolated.

CFTR−/− mice [2] = assay: as above; type: in vivo, mouse; details: CFTR-/- mice, 40 mg/day for one week (fish oil: dose equivalent to 40 mg DHA, 60 mg EPA, 15 mg LNA); mean ± S.D.; remark: listed apart in the source

Question: With `CC/C=C\C/C=C\C/C=C\C/C=C\C/C=C\CCCC(=O)O` [EPA, Eicosapentaenoic acid, reference compound] as the molecule, how does the “DHA level in pancreas” value (CFTR−/− mice [1]) read?
Answer: 2.2 ± 0.4 nmol/mg

Question: And the “AA level in pancreas” value (CFTR−/− mice [2])?
Answer: 5.1 ± 0.3 nmol/mg

Source: patent publication US20040127567A1, “Novel methods for treating disorders in which docosahexaenoic acid (DHA) levels are affected” (Beth Israel Deaconess Medical Center, Inc., priority 1998, published 2004)
